Source: US20020013306A1, “TERPYRIDINE-PLATINUM(II) COMPLEXES” (priority 1996, published 2002)
Several values for one entry are separate records, joined by “and”; a condition that tells them apart may be missing. Identical values can stand only once. Like-named read-outs stand apart in the source and are kept apart here.

Experiments:
[1] = tested on: CH1 human ovarian carcinoma cell line; assay: 96 h growth inhibition, sulforhodamine B assay, CH1; type: cell-based; settings: 96 h exposure, v = variable (mean)
[2] = tested on: CH1cis^R human ovarian carcinoma cell line (cisplatin resistant); assay: 96 h growth inhibition, sulforhodamine B assay, CH1cisR; type: cell-based; settings: for IC50: 96 h exposure, growth inhibition, v = variable (mean); for RF resistance factor: IC50 resistant line/IC50 parent line: CH1cis^R / CH1
[3] = tested on: CH1dox^R human ovarian carcinoma cell line (doxorubicin resistant); assay: 96 h growth inhibition, sulforhodamine B assay, CH1doxR; type: cell-based; settings: for IC50: 96 h exposure, growth inhibition; for RF resistance factor: IC50 resistant line/IC50 parent line: CH1dox^R / CH1
[4] = tested on: A2780cis^R human ovarian carcinoma cell line (cisplatin resistant); assay: 96 h growth inhibition, sulforhodamine B assay, A2780cisR; type: cell-based; settings: for IC50: 96 h exposure, growth inhibition, v = variable (mean); for RF resistance factor: IC50 resistant line/IC50 parent line: A2780cis^R / A2780
[5] = tested on: SKOV3 human ovarian carcinoma cell line; assay: 96 h growth inhibition, sulforhodamine B assay, SKOV3; type: cell-based; settings: 96 h exposure, v = variable (mean)
[6] = tested on: T. brucei (S427) bloodstream trypomastigotes; assay: Trypanosoma brucei bloodstream trypomastigote culture; type: cell-based
[7] = tested on: A2780 human ovarian carcinoma cell line; assay: 96 h growth inhibition, sulforhodamine B assay, A2780; type: cell-based; settings: 96 h exposure, v = variable (mean)
T. cruzi (MHOM/BR/00/Y) = assay: Trypanosoma cruzi in mouse peritoneal macrophages; type: cell-based
Description: Trypanosoma cruzi: […] Drug activity was determined from the % of infected macrophages in treated cultures. Nifurtimox was used as the positive control.

[8] = tested on: P falciparum (chloroquin resistant strain K1); assay: In vitro antimalarial activity, chloroquine resistant K1; settings: for % Inhibition, MQ, K1 P. falciparum: duplicates
Description: Plasmodium falciparum: P falciparum (chloroquin resistant strain K1) was cultured at 37° C. in a 5% suspension of infected so erythrocytes (group A Rh^+) in complete medium as described by E L Elueze, S L Croft and D C Warhurst, J Antimicrobial Chemotherapy, 1996, 37, 511-518. The in vitro antimalarial activity of compounds were likewise determined according to their protocol. Mefloquin was used as the positive control.”

Compound | IC50 [1] [µM] | IC50 [2] [µM] | RF resistance factor: IC50 resistant line/IC50 parent line [2] | IC50 [3] [µM] | RF resistance factor: IC50 resistant line/IC50 parent line [3] | IC50 [4] [µM] | IC50 [5] [µM] | % Inhibition, Trypanosoma brucei ([6]; 0.1 μM) [%] | % Inhibition, Trypanosoma brucei ([6]; 0.3 μM) [%] | % Inhibition, Trypanosoma brucei ([6]; 1 μM) [%] | % Inhibition, Trypanosoma brucei ([6]; 3 μM) [%] | % Inhibition, Trypanosoma brucei ([6]; 10 μM) [%] | % Inhibition, Trypanosoma brucei ([6]; 30 μM) [%] | IC50 [7] [µM] | RF resistance factor: IC50 resistant line/IC50 parent line [4] | also measured
4,4′-Vinylidenedipyridine bis[4′-chloro-2,2′:6′,2″-terpyridine platinum II]tetrafluoroborate [Compound I14] | 15 | 17 | 1.1 | 7.8 | 0.5 | 19 | 15 |  |  |  |  |  |  |  |  | 
Ammonio 4′-chloro-2,2′:6′,2″-terpyridine platinum II tetrafluoroborate [Compound I12] |  |  |  |  |  |  |  | 0 | 0 | 100 | 100 | 100 | 100 |  |  | 
Cc1ccncc1.Cc1ccncc1.F[B-](F)(F)F.F[B-](F)(F)F.F[B-](F)(F)F.F[B-](F)(F)F.O=C(CCCCC(=O)NNc1cc(-c2ccccn2)nc(-c2ccccn2)c1)NNc1cc(-c2ccccn2)nc(-c2ccccn2)c1.[Pt+2].[Pt+2] [V, Adipoyl-Linked-Bis[4-Picoline(4′-Hydrazino-2,2′:6′,2″-Terpyridine) Platinum(II)] Tetrafluoroborate] | 48 | 42 | 0.9 | 40 | 0.8 | 40 | 98 | 0 | 0 | 0 | 100 | 100 | 100 | 19 | 2.1 | % Inhibition, Trypanosoma cruzi (T. cruzi (MHOM/BR/00/Y); 1 μM): 0%; % Inhibition, Trypanosoma cruzi (T. cruzi (MHOM/BR/00/Y); 3 μM): 0%; % Inhibition, Trypanosoma cruzi (T. cruzi (MHOM/BR/00/Y); 10 μM): 0%; % Inhibition, Trypanosoma cruzi (T. cruzi (MHOM/BR/00/Y); 30 μM): 0%
4-Picoline 4′-amino-2,2′:6′,2″-terpyridine platinum II tetrafluoroborate [X] | 15.1 | 16.5 | 1.1 | 17 | 1.1 | 21 | 25 | 0 | 0 | 100 | 100 | 100 | 100 | 25 | 0.8 | 
Brc1ccc(-c2cc(-c3ccccn3)nc(-c3ccccn3)c2)cc1.F[B-](F)(F)F.F[B-](F)(F)F.N.[Pt+2] [Compound Q12, Ammonio 4′-(4-bromophenyl)-2,2′:6′,2″-terpyridine platinum II tetrafluoroborate] |  |  |  |  |  |  |  | 100 | 100 | 100 | 100 | 100 | 100 |  |  | 
Brc1cc[n+]([Pt-2]23[n+]4ccccc4-c4cccc([n+]42)-c2cccc[n+]23)cc1.F[B-](F)(F)F.F[B-](F)(F)F [Compound A1] | 2.1 | 2.1 | 1.0 | 0.85 | 0.41 | 6.7 | 9.2 | 100 | 100 | 100 | 100 | 100 | 100 | 5.8 | 1.16 | % Inhibition, Trypanosoma brucei ([6]; 0.03 μM): 100%
N.N.[Cl][Pt][Cl] [cisplatin, cis[Pt(NH3)2Cl2], reference compound] | 0.4 | 1.2 |  |  |  | 8.8 | 2.25 |  |  |  |  |  |  | 0.53 |  | 
Cc1ccncc1.F[B-](F)(F)F.F[B-](F)(F)F.NNc1cc(-c2ccccn2)nc(-c2ccccn2)c1.[Pt+2] [R, (4-Picoline)(4′-Hydrazino-2,2′:6′,2″-Terpyridine) Platinum (II) Tetrafluoroborate] | 16 | 13.5 | 0.8 | 5.3 | 0.3 | 89 | 80 | 4.9 | 29.6 | 100 | 100 | 100 | 100 | 39 | 2.3 | % Inhibition, Trypanosoma cruzi (T. cruzi (MHOM/BR/00/Y); 1 μM): 60.8%; % Inhibition, Trypanosoma cruzi (T. cruzi (MHOM/BR/00/Y); 3 μM): 57.7%; % Inhibition, Trypanosoma cruzi (T. cruzi (MHOM/BR/00/Y); 10 μM): 65.8%; % Inhibition, Trypanosoma cruzi (T. cruzi (MHOM/BR/00/Y); 30 μM): 60.1%
CC(=O)c1cc[n+]([Pt-2]23[n+]4ccccc4-c4cccc([n+]42)-c2cccc[n+]23)cc1.F[B-](F)(F)F.F[B-](F)(F)F [Compound A2] | 2.2 | 2.3 | 1.05 | 1.18 | 0.54 | 7.5 | 11.1 | 62.7 | 86.4 | 100 | 100 | 100 | 100 | 5.9 | 1.25 | % Inhibition, Trypanosoma cruzi (T. cruzi (MHOM/BR/00/Y); 1 μM): 3.8%; % Inhibition, Trypanosoma brucei ([6]; 0.03 μM): 50.0%
F[B-](F)(F)F.F[B-](F)(F)F.OCc1cc[n+]([Pt-2]23[n+]4ccccc4-c4cccc([n+]42)-c2cccc[n+]23)cc1 [Compound A9] | 14 | 12.5 | 0.9 | 5 | 0.3 | 92 | 17 | 32.5 | 100 | 100 | 100 | 100 | 100 | 40 | 2.3 | 
4,4′-Vinylidenedipyridine bis[2,2′:6′,2″-terpyridine platinum II] tetrafluoroborate [Compound A14] | 1.35 | 0.63 | 0.46 | 5.1 | 3.8 | 2.4 | 1.3 |  |  |  |  |  |  | 1.6 | 1.5 | 
Cc1ccncc1.F[B-](F)(F)F.F[B-](F)(F)F.OCCNc1cc(-c2ccccn2)nc(-c2ccccn2)c1.[Pt+2] [U, (4-Picoline)(4′-(N-2-Hydroxyethyl)amino-2,2′:6′,2″-Terpyridine) Platinum (II) Tetrafluoroborate] |  |  |  |  |  |  |  | 0 | 0 | 0 | 68.4 | 100 | 100 |  |  | % Inhibition, Trypanosoma cruzi (T. cruzi (MHOM/BR/00/Y); 1 μM): 0%; % Inhibition, Trypanosoma cruzi (T. cruzi (MHOM/BR/00/Y); 3 μM): 0%; % Inhibition, Trypanosoma cruzi (T. cruzi (MHOM/BR/00/Y); 10 μM): 0%; % Inhibition, Trypanosoma cruzi (T. cruzi (MHOM/BR/00/Y); 30 μM): 18.0%
OC(c1cc(C(F)(F)F)nc2c(C(F)(F)F)cccc12)C1CCCCN1 (stereo not drawn) [MQ, Mefloquin, reference compound] |  |  |  |  |  |  |  |  |  |  |  |  |  |  |  | % Inhibition, MQ, K1 P. falciparum ([8]; Concn. MQ 0.015625 μM): 0%; % Inhibition, MQ, K1 P. falciparum ([8]; Concn. MQ 0.0626 μM): 77.5% and 56.9%; % Inhibition, MQ, K1 P. falciparum ([8]; Concn. MQ 0.5 μM): 96.4% and 95.3%; % Inhibition, MQ, K1 P. falciparum ([8]; Concn. MQ 1 μM): 94.9% and 91.6%; % Inhibition, MQ, K1 P. falciparum ([8]; Concn. MQ 2 μM): 96.3% and 94.7%; % Inhibition, MQ, K1 P. falciparum ([8]; Concn. MQ 025 μM): 98.0% and 97.2%; % Inhibition, MQ, K1 P. falciparum ([8]; Concn. MQ 003125 μM): 0.5% and 0%; % Inhibition, MQ, K1 P. falciparum ([8]; Concn. MQ): 93.6% and 94.8%; IC50 ([8]; read-out: IC50 (avg), K1 P. falciparum, average of duplicates): 0.06 µM; IC50 ([8]; read-out: IC50, K1 P. falciparum, each duplicate (1),(2)): 0.05 µM and 0.06 µM
CC1CS(=O)(=O)CCN1/N=C/c1ccc([N+](=O)[O-])o1 (stereo not drawn) [nifurtimox, Nifurtimox, reference compound] |  |  |  |  |  |  |  |  |  |  |  |  |  |  |  | EC50 (T. cruzi (MHOM/BR/00/Y); Trypanosoma cruzi, Peritoneal macrophage, read-out: ED50 against Trypanosoma cruzi): 3 µM
4,4′-Vinylidenedipyridine bis[4′-(4-bromophenyl)-2,2′:6′,2″-terpyridine platinum II]tetrafluoroborate [Compound Q14] | 2 | 2.8 | 1.4 | 1.9 | 0.9 | 2.3 | 4.7 |  |  |  |  |  |  |  |  | 
